In US6225478A, “Iridoid derivatives and neovascularization inhibitors containing the same as active ingredient” (Tsumura & Co., priority 1999, dated 2001):
≈ marks a conversion by molar mass, not a printed value. Where two headings read alike, the source gives them in different places.

How the values were obtained:
[1] = system: human umbilical-vein endothelial cells (HUVEC); experiment: Tube Formation Assay (TFA) Test, HUVEC in collagen gel; type: cell-based; settings: for inhibition at 1 µg/mL / inhibition at 10 µg/mL / inhibition at 320 µM (stock): Homo sapiens, HUVEC; for inhibition at 1 µg/mL / inhibition at 10 µg/mL: 20 h, read-out: TFA (inhibition rate, %); for inhibition at 320 µM (stock) / TFA (inhibition rate, %): Tables 75-83, 0.32 mM sample solution, method as for Compounds 1 through 60; for inhibition at 320 µM (stock): read-out: TFA Inhibition rate (%)
Method in brief: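 Inhibition rate (%) of tube formation is computed from tube lengths against control (+) and control (-), measured after 20 h at 37 °C in M-199 with 20% FCS, 30 ng/ml b-FGF and 0.1 μM PMA. Samples were applied to HUVEC on collagen and covered by a second collagen layer (double-layer gel).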

[2] = system: human umbilical-vein endothelial cells (HUVEC); experiment: Cell Proliferation Assay (CPA) Test, HUVEC, MTT; type: cell-based; settings: Homo sapiens, M199 (2+) medium, read-out: CPA (IC50 μg/ml)
Experimental: (§1) Furthermore, the sample liquids of compounds used in the CPA and CMA tests were prepared in the manner described below. Firstly, after weighing out each compound, a calculated amount of DMSO was added. After dissolving the compound in the DMSO, phosphate buffered physiological saline (PBS (-)) was added to bring the sample concentration to 1 mg/ml in PBS (-). The amount of DMSO used to dissolve the compounds was adjusted in advance to that the concentration of DMSO at that time was 5%. The resulting liquids were diluted 10-fold with 5% DMSO-PBS (-) solution to prepare sample solutions having a concentration of 0.1 mg/ml. In the TFA test, 320 μl of the prepared 1 mg/ml sample solutions were removed followed by addition of 680 μl of PBS (-) to prepare samples having a concentration of […]. Moreover, 100 μl of this solution was removed followed by addition of 900 μl of PBS (-) to dilute 10-fold and prepare samples having a concentration of 1 μg/ml. P [Cell Proliferation Assay (CPA) Test]
100 μl of the 7th subculture obtained from first generation human umbilical-vein endothelial cells (HUVEC) were disseminated in the wells (N=3) of a 96-well plate (Iwaki, Cat. #4860-010) at a cell concentration of 5×10^4 cells/ml. M-199 medium containing +20% FCS, 10 ng/ml of b-FGF and 10 ng/ml of EGF (abbreviated as "M199 (2+)") was used for the medium.
After culturing for 24 hours at 37° C. in the presence of 5% CO2 under the above conditions, 20 μl/well of MTT solution (solution containing 5 mg/ml of PBS (-)) were added to the control well followed by accurately culturing for 4 hours at 37° C. in the presence of 5% CO2. Following completion of culturing, 100 μl/well of a stop solution (0.001 N aqueous HCl solution containing 10% SDS) were added. On the other hand, 10 μl/well of sample solutions at concentrations of 1 mg/ml and 0.1 mg/ml were added to the other wells.
After culturing for 24 hours at 37° C. in the presence of 5% CO2, the medium was replaced and 100 μl/well of M199 (2+) were added. The samples were also replaced in each well at this time.
Moreover, after additionally culturing for 48 hours at 37° C. in the presence of 5% CO2, 20 μl/well of MTT solution were added to the wells containing sample and the control well followed by accurately culturing for 4 hours at 37° C. and adding 100 μl/well of stop solution.

[3] = system: human umbilical-vein endothelial cells (HUVEC); experiment: Cell Migration Assay (CMA) Test, HUVEC (% relative to control); type: cell-based; settings: Homo sapiens, HUVEC
Experimental: as §1
After disseminating the 7th subculture of HUVEC obtained from the first generation in the same manner as above at 4 ml/well (3.0×10^5 cells/well) in a collagen-coated 6-well plate (NUNC), the cells were cultured for 48 hours at 37° C. in the presence of 5% CO2. The cells reached nearly a completely confluent state as a result of this culturing.
A double-edged, disposable razor blade was divided into four sections, of which one of those sections was pinched between a pair of forceps. Using this piece of razor blade, the cell surface in the above confluent state was scraped off. Two areas of the cell surface were scraped off in each well.
After washing the surface of the wells from which the cells had been scraped off with medium, 4.0 ml of fresh M199 (2+) medium were added followed by addition of 40 μl or 4 μl of sample solution (1 mg/ml). The cells were cultured for 24 hours at 37° C. in the presence of 5% CO2. After discarding the culture liquid, the cells were fixed for 30 minutes with methanol. Next, after staining the cells for 4 hours with Giemsa stain, the plates were washed with tap water and air dried.
Measurement of cell migration was performed by microscopically counting the number of cells that had newly migrated within the range of a 1 mm×1 mm block. […] The total number of cells counted in blocks 1 through 5 were then totaled to determine the overall total number of cells. Four fields were counted for each well.
Evaluation was performed determining the cell migration (%) according to the following formula.
Cell migration rate=number of migrating cells to which sample was added×100/number of migrating of control (+)
Control (+) indicates the number of migrating cells in the control well containing M199 (2+).

[4] = system: HUFEC; experiment: Cell Migration Assay (CMA) Test, inhibitory rate with control (-) correction; type: cell-based, human; settings: 125 μl of 0.32 mM sample solution in 4.0 ml medium, 80% or more = remarkable; for inhibition at 320 µM (stock): Homo sapiens, 24 h
Method in brief: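 Confluent HUFEC monolayers were scratch-wounded, then cultured 24 h at 37 °C, 5% CO2 in M199 (2+) medium with compound added as 125 μl of a 0.32 mM solution (3.2% DMSO) per 4 ml. Giemsa-stained cells migrating into 1 mm×1 mm blocks counted; inhibition % calculated relative to control (+) and control (−) wells.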

[5] = 1 μg/ml, 20 hours, 40% or less judged remarkable
[6] = 10 μg/ml, 20 hours, 40% or less judged remarkable
[7] = 1 μg/ml, 24 hours, 60% or less = remarkable inhibition, read-out: CMA (% relative to control)
[8] = 10 μg/ml, 24 hours, 60% or less = remarkable inhibition, read-out: CMA (% relative to control)

With CNC(=O)O[C@@H]1OCC(C(=O)OC)[C@H]2C[C@@H]3O[C@]3(C)C12 (stereo in doubt) [Compound 55, (1S,4R,4aS,6S,7R,7aR)-6,7-epoxy-7-methyl-1-(methylcarbamoyloxy)-1,3,4,4a,5,6,7,7a-octahydrocyclopenta [c] pyrane-4-carboxylic acid methylester] the inhibition at 1 µg/mL [1, 5] was 13.9%, the inhibition at 10 µg/mL [1, 6] was 3.8% and the IC50 [2] was greater than 100 µg/mL. It also gave an activity at 1 µg/mL [3, 7] of 97.8% and an activity at 10 µg/mL [3, 8] of 91.8%.

CNC(=O)O[C@@H]1OC=C(C(=O)OC)[C@H]2C[C@H]3O[C@@]3(C)C12 (stereo in doubt) [Compound 57, (1S,4aS,6R,7S,7aR)-6,7-epoxy-7-methyl-1-(methylcarbamoyloxy)-1,4a,5,6,7,7a-hexahydrocyclopenta [c] pyrane-4-carboxylic acid methylester] showed an inhibition at 1 µg/mL [1, 5] of 17.7%, an inhibition at 10 µg/mL [1, 6] of 13.5% and an IC50 [2] greater than 100 µg/mL. The activity at 1 µg/mL [3, 7] was 96% and the activity at 10 µg/mL [3, 8] was 93%.

Work on COC(=O)C1=CO[C@H](OC(=O)NC(=O)c2ccccc2)C2[C@@H]1C[C@@H]1O[C@]21C (stereo in doubt) [compound 42, (1R,4aS,6S,7R,7aR)-1-(benzoylcarbamoyloxy)-6,7-epoxy-1,4a,5,6,7,7a-hexahydro-7-methylcyclopenta [c] pyrane-4-carboxylic acid methylester] yielded an inhibition at 1 µg/mL [1, 5] of 12.5%, an inhibition at 10 µg/mL [1, 6] of 18.7% and an IC50 [2] greater than 100 µg/mL. It also gave an activity at 1 µg/mL [3, 7] of 90.4% and an activity at 10 µg/mL [3, 8] of 70.6%.

Compound CNC(=O)O[C@@H]1OC=C(C(=O)OC)[C@H]2C[C@@H]3OC3(COC(=O)OC)C12 (stereo in doubt) [compound 47, (1S,4aS,6S,7R,7aR)-6,7-epoxy-7-(methoxycarbonyloxymethyl)-1-(methylcarbamoyloxy)-1,4a,5,6,7,7a-hexahydrocyclopenta [c] pyrane-4-carboxylic acid methylester] has an inhibition at 1 µg/mL [1, 5] of -27.3%, an inhibition at 10 µg/mL [1, 6] of 2.6% and an IC50 [2] greater than 100 µg/mL. The activity at 1 µg/mL [3, 7] was 95.9% and the activity at 10 µg/mL [3, 8] was 60.5%.

Compound CNC(=O)OCC12O[C@H]1C[C@@H]1C(C(=O)OC)=CO[C@@H](OC(=O)NC)C12 (stereo in doubt) [compound 48, (1S,4aS,6S,7R,7aR)-6,7-epoxy-1-(methylcarbamoyloxy)-7-(methylcarbamoyloxymethyl)-1,4a,5,6,7,7a-hexahydrocyclopenta [c] pyrane-4-carboxylic acid methylester] has an inhibition at 1 µg/mL [1, 5] of 51.5%, an inhibition at 10 µg/mL [1, 6] of 54.1% and an IC50 [2] greater than 100 µg/mL. It also gave an activity at 1 µg/mL [3, 7] of 93.3% and an activity at 10 µg/mL [3, 8] of 107%.

Work on CO[C@@H]1[C@H](OC(=O)/C=C/C=C/C=C/C=C/C(=O)O)CC[C@]2(CO2)[C@H]1[C@@]1(C)O[C@@H]1CC=C(C)C [Fumagilline, reference compound] yielded an IC50 [2] of 33.3 µg/mL (≈ 72.6 µM), an activity at 1 µg/mL [3, 7] of 95.5% and an activity at 10 µg/mL [3, 8] of 74.2%.

COC(=O)C1=COC[C@H]2[C@@H]1C[C@@H]1O[C@@]12C [I-303] gave an inhibition at 320 µM (stock) [1] of 30.6% and an inhibition at 320 µM (stock) [4] of 6.1%.

C[C@]12O[C@H]1C[C@@H]1C(C(=O)N3CCN(CCO)CC3)=COC[C@@H]12 [I-304] was tested, and the inhibition at 320 µM (stock) [1] was 11.2% and the inhibition at 320 µM (stock) [4] was 9.4%.

For C[C@@H]1CC[C@@H]2C(C(=O)N3CCN(CCO)CC3)=COC[C@H]12 [I-305], the inhibition at 320 µM (stock) [1] was 23.1% and the inhibition at 320 µM (stock) [4] was 7.6%.

CNC(=O)OCCN1CCN(C(=O)C2=COC[C@@H]3[C@H](C)CC[C@H]23)CC1 [I-306] gave an inhibition at 320 µM (stock) [1] of 22.6% and an inhibition at 320 µM (stock) [4] of 25.1%.

With CNC(=O)O[C@@H]1OC=C(C(=O)O)[C@H]2CC=C(C)[C@@H]12 [I-307] the “TFA (inhibition rate, %)” value [1] was 50.2% and the inhibition at 320 µM (stock) [4] was 52.5%.

For CC1=CC[C@@H]2C(C(=O)O)=CO[C@@H](OC(=O)Nc3ccc(F)cc3F)[C@H]12 [I-308], the inhibition at 320 µM (stock) [1] was 23.2% and the inhibition at 320 µM (stock) [4] was 32.1%.

For CNC(=O)O[C@@H]1OC=C(C(=O)N2CCN(CCO)CC2)[C@H]2CC=C(C)[C@@H]12 [I-309], the inhibition at 320 µM (stock) [1] was 5.2% and the inhibition at 320 µM (stock) [4] was 48%.

CNC(=O)O[C@@H]1OC=C(C(=O)NC)[C@H]2CC=C(C)[C@@H]12 [I-310] showed an inhibition at 320 µM (stock) [1] of 20.1% and an inhibition at 320 µM (stock) [4] of 20.7%.

Work on CNC(=O)O[C@@H]1OC=C(C(=O)N2C[C@@H](C)O[C@@H](C)C2)[C@H]2CC=C(C)[C@@H]12 [I-311] yielded an inhibition at 320 µM (stock) [1] of 10.7% and an inhibition at 320 µM (stock) [4] of 7.6%.

For CCOC(=O)C1=CO[C@@H](OC(=O)NC)[C@@H]2C(C)=CC[C@H]12 [I-312], the inhibition at 320 µM (stock) [1] was 41.8% and the inhibition at 320 µM (stock) [4] was 34.9%.

For CNC(=O)O[C@@H]1OC=C(C(=O)O)[C@H]2CC=C(C)[C@@H]12 [I-313], the “TFA (inhibition rate, %)” value [1] was 27.0% and the “CMA Inhibition rate (%)” value ([4]; 24 hours) was 60.2%.

Compound CN(C)c1ccc(O)c2c1C[C@H]1C[C@H]3[C@H](N(C)C)C(O)=C(C(N)=O)C(=O)[C@@]3(O)C(O)=C1C2=O [Minocycline, reference compound] has an inhibition at 1 µg/mL [1, 5] of 42.1%, an inhibition at 10 µg/mL [1, 6] of 56.7% and an activity at 1 µg/mL [3, 7] of 67.3%. The activity at 10 µg/mL [3, 8] was 51.6%.

Compound CNC(=O)O[C@@H]1OC=C(C(=O)O)[C@H]2C[C@@H]3O[C@]3(C)[C@H]12 [compound 2, sodium (1S,4aS,6S,7R,7aR)-6,7-epoxy-1,4a,5,6,7,7a-hexahydro-7-methyl-1-(methylcarbamoyloxy) cyclopenta [c]-pyrane-4-carboxylic acid] has an inhibition at 1 µg/mL [1] of 69.1%, an inhibition at 10 µg/mL [1] of 56.9% and an activity at 1 µg/mL ([3]; 24 h, read-out: CMA (% relative to control), 1 μg/ml, 60% or less = remarkable inhibition) of 88.4%. The activity at 10 µg/mL ([3]; 24 h, read-out: CMA (% relative to control), 10 μg/ml, 60% or less = remarkable inhibition) was 95.8%.

In the case of CCCCCCNC(=O)O[C@@H]1OC=C(C(=O)OC)[C@H]2C[C@@H]3O[C@]3(C)[C@H]12 [compound 33, (1S,4aS,6S,7R,7aR)-6,7-epoxy-1-(n-hexylcarbamoyloxy)-1,4a,5,6,7,7a-hexahydro-7-methylcyclopenta [c] pyrane-4-carboxylic acid methylester], the IC50 [2] is reported as greater than 100 µg/mL, the activity at 1 µg/mL [3, 7] is reported as 109% and the activity at 10 µg/mL [3, 8] is reported as 102%.
